Results taken from patent publication US9051290B2, “Biaryl phosphodiesterase inhibitors” (LEO PHARMA A/S, priority 2010, dated 2015).
pIC50: −log10 of the molar value.

What follows are molecules tested against Human recombinant PDE4 (Genbank accession no NM—006203) (Homo sapiens, UniProt Q08499) (assay: PDE4 assay (SPA, cleavage of cAMP)). Details: 1 hour incubation, test compound up to 10 μM, cAMP 1×10^−5M, read-out: PDE4 IC50 range.
Assay type: biochemical
Procedure: Human recombinant PDE4 (Genbank accession no NM_006203) was incubated for 1 hour with the test compound at concentrations up to 10 μM, with cAMP (1×10^−5M), and with a low amount (0.021 MBq) of radioactively labelled cAMP. At the end of the incubation, the cleavage of the substrate was evaluated by the binding of the AMP product to SPA beads, which generate chemoluminescence when bound to the radioactive tracer. The AMP product inhibited the binding of the radioactive tracer to the beads, and the luminescent signal was competed.
The results were calculated as the molar concentrations resulting in 50% inhibition of the substrate cleavage compared to controls samples, and are expressed as a range of IC50 (M).
The compounds of the present invention were tested in the PDE4 assay.

Sequence of Human recombinant PDE4 (Genbank accession no NM—006203) (Q08499 1-673 isoform Q08499-2): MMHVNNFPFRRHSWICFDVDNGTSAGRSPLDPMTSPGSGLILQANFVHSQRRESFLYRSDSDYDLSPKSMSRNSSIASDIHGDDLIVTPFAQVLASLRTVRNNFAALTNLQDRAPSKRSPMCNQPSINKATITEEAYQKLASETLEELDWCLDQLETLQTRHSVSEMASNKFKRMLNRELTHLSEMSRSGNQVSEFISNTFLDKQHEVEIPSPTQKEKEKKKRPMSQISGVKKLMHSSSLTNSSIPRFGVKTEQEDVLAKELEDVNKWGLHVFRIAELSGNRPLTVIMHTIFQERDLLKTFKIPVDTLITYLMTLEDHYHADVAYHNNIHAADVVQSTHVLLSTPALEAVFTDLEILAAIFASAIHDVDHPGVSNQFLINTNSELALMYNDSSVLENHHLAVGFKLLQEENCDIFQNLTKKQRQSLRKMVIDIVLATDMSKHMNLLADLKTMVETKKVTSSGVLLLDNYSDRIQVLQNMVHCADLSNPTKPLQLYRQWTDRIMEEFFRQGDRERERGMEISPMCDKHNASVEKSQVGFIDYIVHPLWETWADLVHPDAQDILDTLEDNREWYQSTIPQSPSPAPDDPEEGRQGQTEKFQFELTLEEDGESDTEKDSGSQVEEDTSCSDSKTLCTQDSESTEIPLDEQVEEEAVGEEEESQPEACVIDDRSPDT

Row | SMILES | pIC50
1 | COc1ccc(-c2cccc3c2CCC3=O)c(OCC2(COC(=O)NC(C)C)CC2)c1OC [Compound 180, Isopropyl-carbamic acid 1-[2,3-dimethoxy-6-(1-oxo-indan-4-yl)-phenoxymethyl]-cyclopropylmethyl ester] | > 7.00
2 | COc1ccc(-c2ccc3c(c2)CNC3=O)c(OCC2CCC2)c1OC [Compound 149, 5-(2-Cyclobutylmethoxy-3,4-dimethoxy-phenyl)-2,3-dihydro-isoindol-1-one] | > 7.00
3 | COc1ccc(-c2cccc3c2CCC3=O)c(OCC2CCC2)c1OC [Compound 102, 4-(2-Cyclobutylmethoxy-3,4-dimethoxy-phenyl)-indan-1-one] | > 7.00
4 | CNC(=O)C(C)(C)COc1c(-c2ccc3c(c2)CCC3=O)ccc(OC)c1OC [Compound 206, 3-[2,3-Dimethoxy-6-(1-oxo-indan-5-yl)-phenoxy]-2,2,N-trimethyl-propionamide] | > 7.00
5 | CNC(=O)c1ccc(COc2c(-c3cccc4c3COC4=O)ccc(OC)c2OC)cc1 [Compound 117, 4-[2,3-Dimethoxy-6-(1-oxo-1,3-dihydro-isobenzofuran-4-yl)-phenoxymethyl]-N-methyl-benzamide] | > 7.00
6 | COc1ccc(-c2ccc3c(c2)CNC3=O)c(OCCC(C)C)c1OC [Compound 147, 5-[3,4-Dimethoxy-2-(3-methyl-butoxy)-phenyl]-2,3-dihydro-isoindol-1-one] | > 7.00
7 | COc1ccc(-c2ccc3c(c2)CNC3=O)c(OCc2ccc(C(N)=O)cc2)c1OC [Compound 153, 4-[2,3-Dimethoxy-6-(1-oxo-2,3-dihydro-1H-isoindol-5-yl)-phenoxymethyl]-benzamide] | > 7.00
8 | COc1ccc(-c2ccc3c(c2)CNC3=O)c(OCc2cccc(S(C)(=O)=O)c2)c1OC [Compound 160, 5-[2-(3-Methanesulfonyl-benzyloxy)-3,4-dimethoxy-phenyl]-2,3-dihydro-isoindol-1-one] | > 7.00
9 | COc1ccc(-c2ccc3c(c2)COC3=O)c(OCC2CCC2)c1OC [Compound 133, 5-(2-Cyclobutylmethoxy-3,4-dimethoxy-phenyl)-3H-isobenzofuran-1-one] | > 7.00
10 | COC(=O)C(C)(C)COc1c(-c2ccc3c(c2)CCC3=O)ccc(OC)c1OC [Compound 165, 3-[2,3-Dimethoxy-6-(1-oxo-indan-5-yl)-phenoxy]-2,2-dimethyl-propionic acid methyl ester] | > 7.00
11 | CNC(=O)c1ccc(COc2c(-c3ccc4c(c3)CNC4=O)ccc(OC)c2OC)cc1 [Compound 155, 4-[2,3-Dimethoxy-6-(1-oxo-2,3-dihydro-1H-isoindol-5-yl)-phenoxymethyl]-N-methyl-benzamide] | > 7.00
12 | COc1ccc(-c2cccc3c2CCC3=O)c(OCC2(CNC(=O)OC(C)C)COC2)c1OC [Compound 197, {3-[2,3-Dimethoxy-6-(1-oxo-indan-4-yl)-phenoxymethyl]-oxetan-3-ylmethyl}-carbamic acid isopropyl ester] | > 7.00
13 | COc1ccc(-c2ccc3c(c2)CNC3=O)c(OCC(C)C)c1OC [Compound 174, 5-(2-Isobutoxy-3,4-dimethoxy-phenyl)-2,3-dihydro-isoindol-1-one] | > 7.00
14 | COc1ccc(-c2ccc3c(c2)COC3=O)c(OCc2cccc(S(C)(=O)=O)c2)c1OC [Compound 143, 5-[2-(3-Methanesulfonyl-benzyloxy)-3,4-dimethoxy-phenyl]-3H-isobenzofuran-1-one] | > 7.00
15 | COc1ccc(-c2cccc3c2CCC3=O)c(OCC(C)(C)C(=O)NC2CC2)c1OC [Compound 203, N-Cyclopropyl-3-[2,3-dimethoxy-6-(1-oxo-indan-4-yl)-phenoxy]-2,2-dimethyl-propionamide] | > 7.00
16 | COc1ccc(-c2ccc3c(c2)COC3=O)c(OCC(C)C)c1OC [Compound 170, 5-(2-Isobutoxy-3,4-dimethoxy-phenyl)-3H-isobenzofuran-1-one] | > 7.00
17 | COCC1(COc2c(-c3cccc4c3CCC4=O)ccc(OC)c2OC)CC1 [Compound 178, 4-[3,4-Dimethoxy-2-(1-methoxymethyl-cyclopropylmethoxy)-phenyl]-indan-1-one] | > 7.00
18 | COc1ccc(-c2ccc3c(c2)CCC3=O)c(OCCC(C)(C)C)c1OC [Compound 123, 5-[2-(3,3-Dimethyl-butoxy)-3,4-dimethoxy-phenyl]-indan-1-one] | > 7.00
19 | COc1ccc(-c2cc(OC)c(OC)c3c2CCC3=O)c(OCC(C)C)c1OC [Compound 167, 4-(2-Isobutoxy-3,4-dimethoxy-phenyl)-6,7-dimethoxy-indan-1-one] | 6.30 to 7.00
20 | COCC(C)(C)COc1c(-c2ccc3c(c2)COC3=O)ccc(OC)c1OC [Compound 218, 5-[3,4-Dimethoxy-2-(3-methoxy-2,2-dimethyl-propoxy)-phenyl]-3H-isobenzofuran-1-one] | > 7.00

Results, then the molecule that gave them:

Row | pIC50 | SMILES
21 | > 7.00 | COc1ccc(-c2cccc3c2CCC3=O)c(OCC2(CO)CC2)c1OC [Compound 177, 4-[2-(1-Hydroxymethyl-cyclopropylmethoxy)-3,4-dimethoxy-phenyl]-indan-1-one]
22 | ≤ 6.30 | COc1ccc(-c2ccc3c(c2)CCC3=O)c(OCC(C)(C)C(=O)NC(C)C)c1OC [Compound 208, 3-[2,3-Dimethoxy-6-(1-oxo-indan-5-yl)-phenoxy]-N-isopropyl-2,2-dimethyl-propionamide]
23 | > 7.00 | COc1ccc(-c2ccc3c(c2)COC3=O)c(OCc2ccc(C(=O)N(C)C)cc2)c1OC [Compound 139, 4-[2,3-Dimethoxy-6-(1-oxo-1,3-dihydro-isobenzofuran-5-yl)-phenoxymethyl]-N,N-dimethyl-benzamide]
24 | > 7.00 | COc1ccc(-c2ccc3c(c2)CNC3=O)c(OCc2ccc(S(C)(=O)=O)cc2)c1OC [Compound 150, 5-[2-(4-Methanesulfonyl-benzyloxy)-3,4-dimethoxy-phenyl]-2,3-dihydro-isoindol-1-one]
25 | > 7.00 | COc1ccc(-c2ccc3c(c2)CCC3=O)c(OCc2ccc(C(=O)N(C)C)cc2)c1OC [Compound 127, 4-[2,3-Dimethoxy-6-(1-oxo-indan-5-yl)-phenoxymethyl]-N,N-dimethyl-benzamide]
26 | > 7.00 | COc1ccc(-c2ccc3c(c2)COC3=O)c(OCC(C)(C)CO)c1OC [Compound 137, 5-[2(3-Hydroxy-2,2-dimethyl-propoxy)-3,4-dimethoxy-phenyl]-3H-isobenzofuran-1-one]
27 | > 7.00 | COCC1(COc2c(-c3ccc4c(c3)CNC4=O)ccc(OC)c2OC)COC1 [Compound 216, 5-[3,4-Dimethoxy-2-(3-methoxymethyl-oxetan-3-ylmethoxy)-phenyl]-2,3-dihydro-isoindol-1-one]
28 | > 7.00 | COCC1(COc2c(-c3cccc4c3CCC4=O)ccc(OC)c2OC)COC1 [Compound 190, 4-[3,4-Dimethoxy-2-(3-methoxymethyl-oxetan-3-ylmethoxy)-phenyl]-indan-1-one]
29 | > 7.00 | COc1ccc(-c2cccc3c2CCC3=O)c(OCC2(CNC(C)=O)COC2)c1OC [Compound 192, N-{3-[2,3-Dimethoxy-6-(1-oxo-indan-4-yl)-phenoxymethyl]-oxetan-3-ylmethyl}-acetamide]
30 | 6.30 to 7.00 | COc1ccc(-c2cccc3c2COC3=O)c(OCC2(C)COC2)c1OC [Compound 164, 4-[3,4-Dimethoxy-2-(3-methyl-oxetan-3-ylmethoxy)-phenyl]-3H-isobenzofuran-1-one]
